Data on seven molecules can be found in patent US9828379B2 (priority 2013, dated 2017).

Experiment [1] concerns the target T1, ABHD6 (Mus musculus, UniProt Q8R2Y0).
T1 sequence (Q8R2Y0 1-336): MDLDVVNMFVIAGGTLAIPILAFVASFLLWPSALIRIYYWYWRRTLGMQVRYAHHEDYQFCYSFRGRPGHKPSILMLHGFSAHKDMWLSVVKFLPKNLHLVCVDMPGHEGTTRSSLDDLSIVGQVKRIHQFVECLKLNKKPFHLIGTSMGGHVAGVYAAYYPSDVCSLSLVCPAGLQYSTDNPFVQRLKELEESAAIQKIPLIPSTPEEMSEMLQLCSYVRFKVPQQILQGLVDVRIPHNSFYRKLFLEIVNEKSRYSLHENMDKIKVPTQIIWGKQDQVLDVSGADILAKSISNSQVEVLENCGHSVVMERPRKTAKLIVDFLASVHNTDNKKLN
As to the kind of experiment: biochemical. The following applies: in vitro competitive ABPP.

The target in experiment [2] is T2, FAAH (Mus musculus, UniProt O08914).
T2 sequence (O08914 1-579): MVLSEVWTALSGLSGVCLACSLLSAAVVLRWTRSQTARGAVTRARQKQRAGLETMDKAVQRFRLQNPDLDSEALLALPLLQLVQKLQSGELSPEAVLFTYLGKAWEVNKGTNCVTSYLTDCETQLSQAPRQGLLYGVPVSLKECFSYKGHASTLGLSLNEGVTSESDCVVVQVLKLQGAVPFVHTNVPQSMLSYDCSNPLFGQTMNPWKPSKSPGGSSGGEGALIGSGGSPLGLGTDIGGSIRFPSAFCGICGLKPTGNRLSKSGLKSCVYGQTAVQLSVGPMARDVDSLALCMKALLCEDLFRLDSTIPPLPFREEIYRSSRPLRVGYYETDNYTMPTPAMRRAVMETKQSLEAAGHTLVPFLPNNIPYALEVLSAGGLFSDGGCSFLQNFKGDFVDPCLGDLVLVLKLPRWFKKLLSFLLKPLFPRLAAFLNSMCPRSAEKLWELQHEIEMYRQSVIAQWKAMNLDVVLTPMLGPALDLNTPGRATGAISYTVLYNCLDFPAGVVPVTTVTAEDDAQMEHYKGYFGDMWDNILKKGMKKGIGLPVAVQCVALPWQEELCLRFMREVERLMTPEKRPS
As to the kind of experiment: biochemical. The following applies: in vitro competitive ABPP.

In experiment [3] the target is T3, MAGL (Mus musculus, UniProt O35678).
T3 sequence (O35678 1-303): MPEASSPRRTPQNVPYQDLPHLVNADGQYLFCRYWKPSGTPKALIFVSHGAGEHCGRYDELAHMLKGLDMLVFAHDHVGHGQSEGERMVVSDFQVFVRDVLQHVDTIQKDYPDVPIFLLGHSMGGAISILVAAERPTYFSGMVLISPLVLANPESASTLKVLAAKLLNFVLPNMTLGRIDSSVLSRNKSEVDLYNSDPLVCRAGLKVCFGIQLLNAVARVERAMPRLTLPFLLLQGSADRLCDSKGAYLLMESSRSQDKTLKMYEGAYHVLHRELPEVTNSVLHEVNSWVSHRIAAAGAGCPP
Description: biochemical. The following applies: mouse; in vitro competitive ABPP; read-out: Mouse (IC50 value, nM) MAGL.

The target of experiment [4] is T1, ABHD6. As to the kind of experiment: In vitro competitive activity-based protein profiling (Table 2, % inhibition at 1 μM). Format: biochemical. The following applies: read-out: % Inhibition at 1 μM ABHD6.
In experiment [5] the target is T2, FAAH. The experiment is described as above. In kind it is biochemical. The following applies: read-out: % Inhibition at 1 μM FAAH.
Experiment [6] addresses T3, MAGL. The experiment is described as above. In kind it is biochemical. The following applies: read-out: % Inhibition at 1 μM MAGL. The method, then: After 30 min, FP—Rh (1.0 μL, 50 μM in DMSO) was added and the mixture was incubated for another 30 min at 37° C. Reactions were quenched with SDS loading buffer (50 μL-4×) and run on SDS-PAGE.
Cell lysates were diluted with mock proteomes for use in competitive ABPP experiments.

On to `O=C(ON1C(=O)CCC1=O)N1CC2CN(Cc3ccccc3-c3ccccc3)CC2C1` (stereo not drawn) [Example 87, 2,5-Dioxopyrrolidin-1-yl-5-[(2-phenylphenyl)methyl]-octahydropyrrolo[3,4-c]pyrrole-2-carboxylate], for which the IC50 in experiment [1] lay in the range of 1000 to 10000 nM; in experiment [2], 100 to 1000 nM; in experiment [3], 100 to 1000 nM. Moreover, the inhibition at 1 µM is 25 to 75% in experiment [4], 25 to 75% in experiment [5] and over 75% in experiment [6].

On to `O=C(OC(C(F)(F)F)C(F)(F)F)N1CC2CN(Cc3ccc(Cl)cc3N3CC4COCC4C3)CC2C1` (stereo not drawn) [Example 208, 1,1,1,3,3,3-hexafluoropropan-2-yl 5-(4-chloro-2-(tetrahydro-1H-furo[3,4-c]pyrrol-5(3H)-yl)benzyl)hexahydropyrrolo[3,4-c]pyrrole-2(1H)-carboxylate], for which the IC50 was in the range of 1000 to 10000 nM in experiment [1], 1000 to 10000 nM in experiment [2] and 100 to 1000 nM in experiment [3]. Further, the results for the inhibition at 1 µM in experiment [4], in experiment [5] and in experiment [6] were under 25%, under 25% and over 75%, respectively.

In the case of `O=C(OC(C(F)(F)F)C(F)(F)F)N1CC2CN(Cc3ccc(F)cc3N3CCCC3)CC2C1` (stereo not drawn) [Example 15, 1,1,1,3,3,3-Hexafluoropropan-2-yl 5-[[4-fluoro-2-(pyrrolidin-1-yl)phenyl]methyl]-octahydropyrrolo[3,4-c]pyrrole-2-carboxylate], the IC50 in experiment [1] is 1000 to 10000 nM; in experiment [2] it was 1000 to 10000 nM; in experiment [3] it was 100 to 1000 nM. In addition, the inhibition at 1 µM was under 25% in experiment [4], 25 to 75% in experiment [5] and over 75% in experiment [6].

Take `O=C(ON1C(=O)CCC1=O)N1CC2CN(Cc3ccc(Cl)cc3N3CCOC4CCCC43)CC2C1` (stereo not drawn) [Example 82, 2,5-Dioxopyrrolidin-1-yl 5-(4-chloro-2-(hexahydrocyclopenta[b][1,4]oxazin-4(4aH)-yl)benzyl)hexahydropyrrolo[3,4-c]pyrrole-2(1H)-carboxylate]: the values for the IC50 in experiment [1], in experiment [2] and in experiment [3] were 1000 to 10000 nM, 1000 to 10000 nM and 100 to 1000 nM, respectively. Besides, the inhibition at 1 µM in experiment [4] is 25 to 75%; in experiment [5], under 25%; in experiment [6], 25 to 75%.

On to `Cc1c(CN2CC3CN(C(=O)OC(C(F)(F)F)C(F)(F)F)CC3C2)cccc1C(=O)N1CCCCC1` (stereo not drawn) [Example 187, 1,1,1,3,3,3-hexafluoropropan-2-yl 5-(2-methyl-3-(piperidine-1-carbonyl)benzyl)hexahydropyrrolo[3,4-c]pyrrole-2(1H)-carboxylate], for which the IC50 in experiment [1] is 1000 to 10000 nM; in experiment [2], 1000 to 10000 nM; in experiment [3], under 100 nM. For the same molecule, the inhibition at 1 µM is 25 to 75% in experiment [4], under 25% in experiment [5] and over 75% in experiment [6].

`CC(=O)N1CCC(n2nc(C)cc2CN2CC3CN(C(=O)OC(C(F)(F)F)C(F)(F)F)CC3C2)CC1` (stereo not drawn) [Example 60, 1,1,1,3,3,3-Hexafluoropropan-2-yl 5-[[1-(1-acetylpiperidin-4-yl)-3-methyl-1H-pyrazol-5-yl]methyl]-octahydropyrrolo[3,4-c]pyrrole-2-carboxylate]: the IC50 in experiment [1] is 1000 to 10000 nM; in experiment [2] it was over 10000 nM; in experiment [3], 100 to 1000 nM. Moreover, the inhibition at 1 µM in experiment [4] is under 25%; in experiment [5] it was under 25%; in experiment [6], over 75%.

In the case of `O=C(OC(C(F)(F)F)C(F)(F)F)N1CC2CN(Cc3cccc(N4CCOCC4)c3Cl)CC2C1` (stereo not drawn) [Example 49, 1,1,1,3,3,3-Hexafluoropropan-2-yl 5-[[2-chloro-3-(morpholin-4-yl)phenyl]methyl]-octahydropyrrolo[3,4-c]pyrrole-2-carboxylate], the IC50 in experiment [1] was 1000 to 10000 nM; in experiment [2], 1000 to 10000 nM; in experiment [3], under 100 nM. Moreover, the inhibition at 1 µM in experiment [4] was under 25%; in experiment [5], 25 to 75%; in experiment [6], over 75%.

The term IC50 denotes the concentration at which inhibition is half-maximal. By inhibition is commonly meant the relative decrease from the control value, in per cent.
